# Reference: patent US8828931B2, “Bifunctional molecules for inhibiting HIV entry” (priority 2008, dated 2014)
# Where two headings read alike, the source gives them in different places. No end group written: not given here.
# Key:
# [1] = In vitro stability in human serum, residual activity by cell-cell fusion inhibition assay; conditions: 16 μM, 37° C., 100% human serum
# From the text: (§1) Samples were collected at different intervals and tested for the residual concentrations of the active component using cell-cell fusion inhibition assay as described above.
# [2] = system: NL4-3V38A/N42G
# Procedure: Briefly, 2×10^5 or 5×10^5 CEMx174 5.25M7 cells were infected with HIV-1 or HIV-2, respectively, at 100 TCID50 (50% tissue culture infective dose) in RPMI 1640 medium containing 10% FBS in the absence or presence of an antisera or purified IgG antibodies at graded concentrations overnight. On the fourth day post-infection, cells were harvested and lysed using a lysis buffer (Promega, Madison, Wis.). The luciferase activity was measured by Ultra 384 luminometer reader (Tecan) and the percent inhibition was calculated.
# [3] = In vitro stability in PBMC culture, residual activity by cell-cell fusion inhibition assay; conditions: 16 μM, 37° C.
# From the text: as §1
# [4] = system: HIV-1 IIIB-mediated cell fusion (H9/HIV-1 IIIB effector cells, MT-2 target cells); conditions: H9/HIV-1 IIIB and MT-2 cells, dye transfer
# Procedure: HIV-1-mediated cell-cell fusion was determined by a dye transfer assay (Lu H et al. J Virol Methods 107:155-161, 2003) using Calcein AM-labeled HIV-1IIIB chronically infected H9 (H9/HIV-1 IIIB) cells as effector cells and MT-2 cells as target cells.
# [5] = biological target: proteinase K (Parengyodontium album, UniProt P06873); assay: Resistance to proteolysis by proteinase K; conditions: 4 μM in PBS, immobilized proteinase K 0.1 unit/ml, 37° C.
# Chain of proteinase K (P06873 106-384): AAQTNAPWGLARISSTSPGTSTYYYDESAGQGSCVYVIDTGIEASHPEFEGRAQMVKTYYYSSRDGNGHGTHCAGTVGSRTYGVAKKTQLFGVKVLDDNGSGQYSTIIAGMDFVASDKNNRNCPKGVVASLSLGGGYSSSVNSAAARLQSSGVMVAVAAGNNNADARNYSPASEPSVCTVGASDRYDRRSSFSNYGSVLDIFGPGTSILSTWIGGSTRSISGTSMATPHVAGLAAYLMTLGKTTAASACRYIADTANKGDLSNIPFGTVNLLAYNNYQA
# [6] = system: HIV-1 IIIB (B, X4)
# Procedure: The inhibitory activity of the bifunctional molecule on HIV-1 IIIB infection was determined by ELISA for p24 production (Jiang S et al. J Exp Med 174:1557-1563, 1991). Briefly, MT-2 cells were infected with HIV-1IIIB at 100 TCID50 (50% tissue culture infective dose) in RPMI 1640 medium containing 10% FBS in the presence or absence of an antigen specific antiserum or IgG antibody in serial 2-fold dilutions at 37° C. overnight. The culture supernatants were then removed and fresh media were added. On day 4 post-infection, the culture supernatants were collected and mixed with equal volumes of 5% Triton X-100 for the detection in the p24 protein ELISA.
# [7] = system: 93IN101 (B, R5); type: cell-based, HIV-1
# Procedure: (§2) Briefly, the peripheral blood mononuclear cells (PBMCs) were isolated from the blood of healthy donors using a standard density gradient (Histopaque-1077, Sigma) centrifugation. After incubation at 37° C. for 2 hr, the nonadherent cells were collected and resuspended at 5×10^5/ml in RPMI 1640 medium containing 10% FBS, 5 μg of phytohemagglutinin (PHA)/ml, and 100 U of IL-2/ml, followed by incubation at 37° C. for 3 days. The PHA-stimulated cells were infected with the corresponding primary HIV-1 isolates at a multiplicity of infection (MOI) of 0.01 in the absence or presence of antisera at a serial 2-fold dilution. The supernatants were collected 7 days post-infection and tested for p24 antigen by ELISA as described above. The IC50 was calculated using the CalcuSyn
# (§3) software as described above.
# [8] = system: 92US657 (B, R5); type: cell-based, HIV-1
# Procedure: as §2, §3
Substance,residual activity in human serum after 6 days [1] [%],"inhibition of infection by T20-resistant strain ([2]; concentration up to 2,000 nM)","IC50 ([2]; read-out: IC50, HIV-1 replication, NL4-3V38A/N42G, T20-resistant HIV-1 strain, luciferase) [nM]","IC90 ([2]; read-out: IC90, HIV-1 replication, NL4-3V38A/N42G, T20-resistant HIV-1 strain, luciferase) [nM]",time after which activity began to be lost in PBMC ([3]; PBMC in RPMI1640 with 10% FBS) [days],"activity lost in PBMC after 6 days incubation ([3]; PBMC, 6 days) [%]","IC50 ([4]; read-out: IC50, concentration for inhibiting HIV-1 IIIB-mediated cell fusion) [nM]","IC90 ([4]; read-out: IC90, concentration for inhibiting HIV-1 IIIB-mediated cell fusion) [nM]",treatment time with proteinase K after which activity was totally lost [5] [min],"IC50 ([6]; IIIB (B, X4)) [nM]","IC90 ([6]; IIIB (B, X4)) [nM]",IC50 [7] [nM],IC90 [7] [nM],IC50 [8] [nM],IC90 [8] [nM],"IC50 ([6]; read-out: IC50, HIV-1 replication, IIIB (B, X4), MT-2 cells, p24) [nM]","IC90 ([6]; read-out: IC90, HIV-1 replication, IIIB (B, X4), MT-2 cells, p24) [nM]"
enfuvirtide,5,no inhibition,> 2000,> 2000,> 2,> 90,15.9,25.4,5,68.1,211,2.7,6.5,1.7,13,,
TTWMAWDREINNYTSLIHSLIRRSQNQQEKNEQELLELDKWASLLWNWF [T1144-C10],,,,,,,,,,,,,,,,> 250,> 250
